Laboratory results reported in ChEMBL document CHEMBL4261580, “Novel antitumor compound optimized from natural saponin Albiziabioside A induced caspase-dependent apoptosis and ferroptosis as a p53 activator through the mitochondrial pathway” (Eur J Med Chem, 2018).
Calls of active or inactive are those of the source. The calls are words filed in the database; no cut-off is given here.

Assays:
[1] = tested on: HepG2; assay: Antiproliferative activity against human HepG2 cells after 72 hrs by MTT assay; assay type: functional, cell-based; conditions: HepG2, 72 h
[2] = tested on: MCF7; assay: Antiproliferative activity against human MCF7 cells after 72 hrs by MTT assay; assay type: functional, cell-based; conditions: MCF7, 72 h
[3] = tested on: A549; assay: Antiproliferative activity against human A549 cells after 72 hrs by MTT assay; assay type: functional, cell-based; conditions: A549, 72 h
[4] = tested on: MGC-803; assay: Antiproliferative activity against human MGC803 cells after 72 hrs by MTT assay; assay type: functional, cell-based; conditions: MGC-803, 72 h
[5] = Antiproliferative activity against human HBMEC cells after 72 hrs by MTT assay; assay type: cell-based
[6] = tested on: HaCaT; assay: Antiproliferative activity against human HaCaT cells after 72 hrs by MTT assay; assay type: cell-based
[7] = Antiproliferative activity against adriamycin-resistant human Bel7402/ADR cells after 72 hrs by MTT assay; assay type: functional; conditions: Bel-7402, 72 h
[8] = Antiproliferative activity against taxol-resistant human HCT8/T cells after 72 hrs by MTT assay; assay type: functional; conditions: HCT-8, 72 h
[9] = tested on: HCT-116; assay: Induction of apoptosis in human HCT116 cells assessed as cell shrinkage at 0.31 to 5 uM after 24 hrs by DAPI staining-based fluorescence microscopic method; assay type: functional
[10] = tested on: HCT-116; assay: Induction of apoptosis in human HCT116 cells assessed as formation of apoptotic bodies at 0.31 to 5 uM after 24 hrs by DAPI staining-based fluorescence microscopic method; assay type: functional, cell-based
[11] = tested on: HCT-116; assay: Induction of apoptosis in human HCT116 cells assessed as late apoptotic cells at 0.31 uM after 72 hrs by Annexin V-FITC/propidium iodide staining-based flow cytometric analysis (reference value: 1.08%); assay type: functional
[12] = tested on: HCT-116; assay: Induction of apoptosis in human HCT116 cells assessed as early apoptotic cells at 0.31 uM after 72 hrs by Annexin V-FITC/propidium iodide staining-based flow cytometric analysis (reference value: 5.30%); assay type: functional
[13] = tested on: HCT-116; assay: Induction of apoptosis in human HCT116 cells assessed as viable cells at 0.31 uM after 72 hrs by Annexin V-FITC/propidium iodide staining-based flow cytometric analysis (reference value: 92.86%); assay type: functional; conditions: HCT-116, 72 h, read-out: Activity
[14] = tested on: HCT-116; assay: Induction of apoptosis in human HCT116 cells assessed as necrotic cells at 1.25 uM after 72 hrs by Annexin V-FITC/propidium iodide staining-based flow cytometric analysis (reference value: 0.76%); assay type: functional
[15] = tested on: HCT-116; assay: Induction of apoptosis in human HCT116 cells assessed as early apoptotic cells at 1.25 uM after 72 hrs by Annexin V-FITC/propidium iodide staining-based flow cytometric analysis (reference value: 5.30%); assay type: functional
[16] = tested on: HCT-116; assay: Induction of apoptosis in human HCT116 cells assessed as early apoptotic cells at 5 uM after 72 hrs by Annexin V-FITC/propidium iodide staining-based flow cytometric analysis (reference value: 5.30%); assay type: functional
[17] = tested on: HCT-116; assay: Induction of apoptosis in human HCT116 cells after 72 hrs by Annexin V-FITC/propidium iodide staining-based flow cytometric analysis; assay type: functional, cell-based
[18] = tested on: HCT-116; assay: Disruption of mitochondrial membrane potential in human HCT116 cells assessed as collapse of mitochondrial membrane potential at 0.31 uM after 72 hrs by JC1 staining-based flow cytometry method (reference value: […]); assay type: functional
[19] = tested on: HCT-116; assay: Disruption of mitochondrial membrane potential in human HCT116 cells assessed as intact mitochondrial membrane at 1.25 uM after 72 hrs by JC1 staining-based flow cytometry method (reference value: 0.33%); assay type: functional
[20] = tested on: HCT-116; assay: Disruption of mitochondrial membrane potential in human HCT116 cells assessed as collapse of mitochondrial membrane potential at 1.25 uM after 72 hrs by JC1 staining-based flow cytometry method (reference value: […]); assay type: functional
[21] = tested on: HCT-116; assay: Disruption of mitochondrial membrane potential in human HCT116 cells assessed as intact mitochondrial membrane at 5 uM after 72 hrs by JC1 staining-based flow cytometry method (reference value: 0.33%); assay type: functional
[22] = tested on: HCT-116; assay: Induction of intracellular ROS generation in human HCT116 cells at 1.25 uM after 72 hrs by DCF-DA-dye based fluorescence microscopy (reference value: 2.74%); assay type: functional
[23] = target: Cellular tumor antigen p53 (Homo sapiens) (UniProt P04637); assay: Activation of p53 in human HCT116 cells assessed as downregulation of Bcl2 expression up to 5 uM after 48 hrs by Western blot analysis; assay type: cell-based
[24] = target: Cellular tumor antigen p53 (Homo sapiens) (UniProt P04637); assay: Activation of p53 in human HCT116 cells assessed as upregulation of p53 expression after 48 hrs by Western blot analysis; assay type: cell-based
[25] = tested on: HCT-116; assay: Cytotoxicity in human HCT116 cells pretreated with DFO followed by compound addition up to 5 uM measured after 72 hrs by MTT assay; assay type: functional, cell-based
[26] = tested on: HCT-116; assay: Cytotoxicity against human HCT116 cells pretreated with K+ followed by compound addition up to 5 uM measured after 72 hrs by MTT assay; assay type: functional, cell-based
[27] = tested on: HCT-116; assay: Cytotoxicity against human HCT116 cells pretreated with Mg2+ followed by compound addition up to 5 uM measured after 72 hrs by MTT assay; assay type: functional, cell-based
[28] = tested on: HCT-116; assay: Cytotoxicity against human HCT116 cells pretreated with Cu2+ followed by compound addition up to 5 uM measured after 72 hrs by MTT assay; assay type: functional, cell-based
[29] = tested on: HCT-116; assay: Cytotoxicity against human HCT116 cells pretreated with Mn2+ followed by compound addition up to 5 uM measured after 72 hrs by MTT assay; assay type: functional, cell-based
[30] = tested on: HCT-116; assay: Cytotoxicity against human HCT116 cells pretreated with Al3+ followed by compound addition up to 5 uM measured after 72 hrs by MTT assay; assay type: functional, cell-based
[31] = tested on: HCT-116; assay: Induction of ferroptosis in human HCT116 cells assessed as downregulation of GPX4 expression after 48 hrs by Western blot analysis; assay type: functional, cell-based
[32] = tested on: HCT-116; assay: Antitumor activity against human HCT116 cells xenografted in BALB/c nude mouse assessed as decrease in tumor size at 20 mg/kg, iv administered once per day for 14 days and measured every 2 days; assay type: functional; design: scale not given: the % may be the effect or the level left
[33] = tested on: Mus musculus; assay: Toxicity in BALB/c nude mouse xenografted with human HCT116 cells assessed as change in body weight at 10 to 20 mg/kg, iv administered once per day for 14 days and measured every 2 days; assay type: organism-based; conditions: in vivo
[34] = tested on: Mus musculus; assay: Toxicity in BALB/c nude mouse xenografted with human HCT116 cells assessed as abnormality in heart at 10 to 20 mg/kg, iv administered once per day by hematoxylin and eosin staining-based microscopic method; assay type: organism-based; conditions: in vivo
[35] = tested on: Mus musculus; assay: Toxicity in BALB/c nude mouse xenografted with human HCT116 cells assessed as abnormality in liver at 10 to 20 mg/kg, iv administered once per day by hematoxylin and eosin staining-based microscopic method; assay type: organism-based; conditions: in vivo
[36] = tested on: Mus musculus; assay: Toxicity in BALB/c nude mouse xenografted with human HCT116 cells assessed as abnormality in spleen at 10 to 20 mg/kg, iv administered once per day by hematoxylin and eosin staining-based microscopic method; assay type: organism-based; conditions: in vivo
[37] = tested on: Mus musculus; assay: Toxicity in BALB/c nude mouse xenografted with human HCT116 cells assessed as abnormality in lung at 10 to 20 mg/kg, iv administered once per day by hematoxylin and eosin staining-based microscopic method; assay type: organism-based; conditions: in vivo
[38] = tested on: PC-3; assay: Antiproliferative activity against p53 deficient human PC3 cells at 0.31 to 5 uM after 72 hrs by MTT assay; assay type: functional, cell-based

Sequence of Cellular tumor antigen p53 (Homo sapiens) (P04637 whole entry, looked up): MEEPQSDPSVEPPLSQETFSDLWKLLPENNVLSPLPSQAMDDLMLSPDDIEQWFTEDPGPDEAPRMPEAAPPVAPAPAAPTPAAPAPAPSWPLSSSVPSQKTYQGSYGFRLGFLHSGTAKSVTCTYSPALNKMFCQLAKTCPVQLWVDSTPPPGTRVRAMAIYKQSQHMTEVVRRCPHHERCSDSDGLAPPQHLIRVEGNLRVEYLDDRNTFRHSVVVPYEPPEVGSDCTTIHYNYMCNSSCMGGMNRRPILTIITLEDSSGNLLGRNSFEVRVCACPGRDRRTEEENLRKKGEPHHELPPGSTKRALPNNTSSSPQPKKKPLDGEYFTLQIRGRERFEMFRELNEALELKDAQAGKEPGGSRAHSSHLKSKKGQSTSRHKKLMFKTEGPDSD

For `CC(=O)N[C@H]1[C@H](O[C@H]2CC[C@]3(C)[C@H]4CC=C5[C@@H]6CC(C)(C)CC[C@]6(C(=O)OCc6cn(-c7cccc(C(C)=O)c7)nn6)CC[C@@]5(C)[C@]4(C)CC[C@H]3C2(C)C)O[C@H](CO[C@@H]2OC[C@H](O)[C@H](O)[C@@H]2O)[C@@H](O)[C@@H]1O`, which IC50 [1] is on record?
The IC50 was 6.5 µM.

What about the IC50 [2] of the same compound?
The IC50 was 10.5 µM.

And the IC50 [3]?
Its IC50 is 9.18 µM.

What about the IC50 [4] of the same compound?
The IC50 was 7.35 µM.

What about the IC50 [5] of the same compound?
The IC50 was 32.2 µM.

What about the IC50 [6] of the same compound?
The IC50 was 37.1 µM.

What about the IC50 [7] of the same compound?
The IC50 was 5.83 µM.

What about the IC50 [8] of the same compound?
The IC50 was 6.05 µM.

What about the Activity [9] of the same compound?
Its Activity is “Active”.

What about the Activity [10] of the same compound?
The Activity was “Active”.

And the Activity [11]?
The Activity was 12.51%.

And the Activity [12]?
The Activity was 5.94%.

And the viability at 0.31 µM [13]?
Its viability at 0.31 µM is 78.9%.

What about the Activity [14] of the same compound?
The Activity was 5.35%.

And the Activity [15]?
The Activity was 3.42%.

And the Activity [16]?
The Activity was 39.27%.

What about the Activity [17] of the same compound?
Its Activity is “Dose-dependent effect”.

And the Activity [18]?
Its Activity is 89.03%.

What about the Activity [19] of the same compound?
The Activity was 22.64%.

And the Activity [20]?
The Activity was 77.36%.

What about the Activity [21] of the same compound?
Its Activity is 40.13%.

And the Activity [22]?
Its Activity is 20.35%.

What about the Activity [23] of the same compound?
Its Activity is “Active”.

And the Activity [24]?
Its Activity is “Dose-dependent effect”.

What about the Activity [25] of the same compound?
The Activity was “inactive”.

What about the Activity [26] of the same compound?
The Activity was “Active”.

And the Activity [27]?
Its Activity is “Active”.

And the Activity [28]?
The Activity was “Active”.

And the Activity [29]?
The Activity was “Active”.

And the Activity [30]?
The Activity was “Active”.

What about the Activity [31] of the same compound?
The Activity was “Dose-dependent effect”.

What about the Activity [32] of the same compound?
The Activity was 71.8%.

What about the Activity [33] of the same compound?
Its Activity is “Non-Toxic”.

What about the Activity [34] of the same compound?
The Activity was “Non-Toxic”.

What about the Activity [35] of the same compound?
The Activity was “Non-Toxic”.

What about the Activity [36] of the same compound?
Its Activity is “Non-Toxic”.

What about the Activity [37] of the same compound?
Its Activity is “Non-Toxic”.

What about the Activity [38] of the same compound?
The Activity was “inactive”.
